Laboratory results: patent publication US12110503B2, “Method for differentiation of ocular cells and use thereof” (FUJIFILM Cellular Dynamics, Inc., priority 2018, dated 2024)

Tested on: anterior neuroectoderm cells
Assay: Retinal differentiation with removal of the BMP inhibitor (RD1 then RD2)
Type: cell-based, human
Details: RD1 with LDN193189 about 2 days, then RD2 without
Protocol: In some aspects, the cells may be first differentiated in the presence of a BMP inhibitor, such as LDN1913189, for a period of time before differentiation in the absence of a BMP inhibitor. First, the anterior neuroectoderm cells are cultured in RD1 comprising a BMP pathway inhibitor, such as LDN193189, for about 1-3 days, such as 2 days. […] The second step may be for about 5-10 days, such as about 7 days, to continue differentiating the anterior neuroectoderm cells. […] VSX2 is the earliest specific marker of neural RPC within the optic vesicle and cup (Rowan, et al., 2004). VSX2^+ retinal progenitors can give rise to all cell types of the neural retina: cones, rods, ganglion cells, amacrine cells, bipolar cells, horizontal cells and Muller glia.
The cells were then cultured in Retinal Differentiation Medium 1 (RD1) for about one to four days, particularly about two days. Briefly, the RD1 (Table 1) comprised DMEM and F12 at about a 1:1 ratio, knockout serum replacement, MEM NEAA, sodium pyruvate, N-2 supplement, B-27 supplement, and ascorbic acid. In addition, the RD1 comprised a WNT pathway inhibitor (e.g., CKI-7), a BMP pathway inhibitor (e.g., LDN193189), a TGFβ pathway inhibitor (e.g., SB431542), and a MEK inhibitor (e.g., PD325901), and IGF-1. […]

With `Cl.c1ccc2c(-c3cnn4cc(-c5ccc(N6CCNCC6)cc5)cnc34)ccnc2c1` [LDN193189, 4-(6-(4-(piperazin-1-yl)phenyl)pyrazolo[1,5-a]pyrimidin-3-yl)quinoline hydrochloride] as the compound, how does the “VSX2 expression after removal of the BMP inhibitor” value read?
Its value is “increase expression of VSX2”.
